This is an account of results in ChEMBL document CHEMBL5724914, “Linking interpersonal differences in gut microbiota composition and drug biotransformation activity” (2024).

The conditions of series [1]: human gut metagenome, 24 h, 2 µM.
For series [2] the following is noted: human gut metagenome, 24 h, 2 µM. This is another data set of the same source.
A short description of series [3]: The drug is tested on WLS-027 corresponding to human gut metagenome with ENA study accession number: PRJEB37062 and ENA sample accession number: ERS12561744 for biotransformation under anaerobic condition. The drug concentrations were measured over 9 timepoints collected between 0 and 24 hours of incubation by liquid-chromatography-coupled mass spectrometry (LC–MS). Particulars: 2 µM.

Series [4] can be described thus: The drug is tested on Z-027 corresponding to metagenome with ENA study accession number: PRJEB37062 and ENA sample accession number: ERS12561826 for biotransformation under anaerobic condition. The drug concentrations were measured over 9 timepoints collected between 0 and 24 hours of incubation by liquid-chromatography-coupled mass spectrometry (LC–MS). The settings on record: 2 µM.

Series [5] is described as follows: The drug is tested on WLS-073 corresponding to human gut metagenome with ENA study accession number: PRJEB37062 and ENA sample accession number: ERS12561749 for biotransformation under anaerobic condition. The drug concentrations were measured over 9 timepoints collected between 0 and 24 hours of incubation by liquid-chromatography-coupled mass spectrometry (LC–MS). The settings on record: 2 µM.

For series [6] the following is noted: human gut metagenome, 24 h, 2 µM. The source holds these as a separate data set.
The nature of series [7]: The drug is tested on Z-001 corresponding to mouse gut metagenome with ENA study accession number: PRJEB37062 and ENA sample accession number: ERS12561801 for biotransformation under anaerobic condition. The drug concentrations were measured over 9 timepoints collected between 0 and 24 hours of incubation by liquid-chromatography-coupled mass spectrometry (LC–MS). The settings on record: 2 µM.

Series [8] is described as follows: The drug is tested on WLS-007 corresponding to human gut metagenome with ENA study accession number: PRJEB37062 and ENA sample accession number: ERS12561742 for biotransformation under anaerobic condition. The drug concentrations were measured over 9 timepoints collected between 0 and 24 hours of incubation by liquid-chromatography-coupled mass spectrometry (LC–MS). The settings on record: 2 µM.

Series [9] can be described thus: The drug is tested on WLS-052 corresponding to human gut metagenome with ENA study accession number: PRJEB37062 and ENA sample accession number: ERS12561747 for biotransformation under anaerobic condition. The drug concentrations were measured over 9 timepoints collected between 0 and 24 hours of incubation by liquid-chromatography-coupled mass spectrometry (LC–MS). The settings on record: 2 µM.

The conditions of series [10]: human gut metagenome, 24 h, 2 µM. The source holds these as a separate data set.
The conditions of series [11]: human gut metagenome, 24 h, 2 µM. The source holds these as a separate data set.
The conditions of series [12]: human gut metagenome, 24 h, 2 µM. This is another data set of the same source.
Series [13] can be described thus: The drug is tested on WLS-098 corresponding to human gut metagenome with ENA study accession number: PRJEB37062 and ENA sample accession number: ERS12561754 for biotransformation under anaerobic condition. The drug concentrations were measured over 9 timepoints collected between 0 and 24 hours of incubation by liquid-chromatography-coupled mass spectrometry (LC–MS). The settings on record: 2 µM.

Series [14] is described as follows: The drug is tested on Z-023 corresponding to metagenome with ENA study accession number: PRJEB37062 and ENA sample accession number: ERS12561822 for biotransformation under anaerobic condition. The drug concentrations were measured over 9 timepoints collected between 0 and 24 hours of incubation by liquid-chromatography-coupled mass spectrometry (LC–MS). The settings on record: 2 µM.

The conditions of series [15]: human gut metagenome, 24 h, 2 µM. The source holds these as a separate data set.
Series [16] is described as follows: The drug is tested on Z-012 corresponding to metagenome with ENA study accession number: PRJEB37062 and ENA sample accession number: ERS12561812 for biotransformation under anaerobic condition. The drug concentrations were measured over 9 timepoints collected between 0 and 24 hours of incubation by liquid-chromatography-coupled mass spectrometry (LC–MS). Particulars: 2 µM.

A short description of series [17]: The drug is tested on WLS-090 corresponding to human gut metagenome with ENA study accession number: PRJEB37062 and ENA sample accession number: ERS12561753 for biotransformation under anaerobic condition. The drug concentrations were measured over 9 timepoints collected between 0 and 24 hours of incubation by liquid-chromatography-coupled mass spectrometry (LC–MS). The settings on record: 2 µM.

The nature of series [18]: The drug is tested on Z-020 corresponding to rabbit gut metagenome with ENA study accession number: PRJEB37062 and ENA sample accession number: ERS12561819 for biotransformation under anaerobic condition. The drug concentrations were measured over 9 timepoints collected between 0 and 24 hours of incubation by liquid-chromatography-coupled mass spectrometry (LC–MS). Particulars: 2 µM.

The conditions of series [19]: human gut metagenome, 24 h, 2 µM. This is another data set of the same source.
A short description of series [20]: The drug is tested on Z-011 corresponding to mouse gut metagenome with ENA study accession number: PRJEB37062 and ENA sample accession number: ERS12561811 for biotransformation under anaerobic condition. The drug concentrations were measured over 9 timepoints collected between 0 and 24 hours of incubation by liquid-chromatography-coupled mass spectrometry (LC–MS). Particulars: 2 µM.
Further: call rule not given here.

For `CCOc1ccc(NC(C)=O)cc1` [PHENACETIN], the “Bacterial Biotransformation” value in [1], in series [2], in [3], in series [4], in series [5] and in series [6] was “Compound NOT metabolized” throughout. Further, the “Bacterial Biotransformation” value in series [7], in series [8], in series [9], in [10], in series [11] and in series [12] was “Compound NOT metabolized” in each case. Moreover, the “Bacterial Biotransformation” value in series [13], in series [14], in series [15], in series [16], in [17] and in series [18] was “Compound NOT metabolized” each time. Further, the “Bacterial Biotransformation” value in [19] and in [20] was “Compound NOT metabolized” throughout.
As for `CC(C(=O)O)c1ccc2c(c1)Cc1cccnc1O2` (stereo not given) [PRANOPROFEN], the “Bacterial Biotransformation” value in [1], in [2], in series [3], in [4], in series [5] and in series [6] was “Compound metabolized” throughout. For the same compound, the “Bacterial Biotransformation” value in [7], in [8], in [9], in series [10], in [11] and in [12] was “Compound metabolized” each time. Besides, the “Bacterial Biotransformation” value in series [13], in [14], in series [15], in series [16], in series [17] and in [18] was “Compound metabolized” in each case. Also, the “Bacterial Biotransformation” value in series [19] and in [20] was “Compound metabolized” each time.
Consider `CCc1nc(N)nc(N)c1-c1ccc(Cl)cc1` [PYRIMETHAMINE], for which the “Bacterial Biotransformation” value in [1], in series [2], in series [3], in [4], in [5] and in series [6] was “Compound NOT metabolized” throughout. Besides, the “Bacterial Biotransformation” value in series [7] is reported as “Compound NOT metabolized”; in [8] it was “Compound metabolized”; in series [9] it was “Compound NOT metabolized”; in series [10], “Compound NOT metabolized”; in series [11], “Compound NOT metabolized”; in series [12], “Compound NOT metabolized”. Further, the “Bacterial Biotransformation” value was “Compound metabolized” in [13]; “Compound NOT metabolized” in series [14]; “Compound metabolized” in series [15]; “Compound NOT metabolized” in [16]; “Compound metabolized” in series [17]; “Compound NOT metabolized” in series [18]. Besides, the “Bacterial Biotransformation” value in series [19] and in [20] was “Compound NOT metabolized” throughout.
Regarding `COc1ccccc1OCC(O)CN1CCN(CC(=O)Nc2c(C)cccc2C)CC1` (stereo not given) [RANOLAZINE], the “Bacterial Biotransformation” value in series [1], in [2], in series [3], in [4], in [5] and in series [6] was “Compound NOT metabolized” in each case. Further, the “Bacterial Biotransformation” value in series [7], in series [8], in series [9], in series [10], in series [11] and in series [12] was “Compound NOT metabolized” each time. Moreover, the “Bacterial Biotransformation” value in [13] is “Compound NOT metabolized”; in series [14], “Compound metabolized”; in series [15], “Compound NOT metabolized”; in [16] it was “Compound NOT metabolized”; in [17], “Compound NOT metabolized”; in series [18], “Compound NOT metabolized”. Moreover, the “Bacterial Biotransformation” value in [19] and in series [20] was “Compound NOT metabolized” throughout.
For the compound `CCCc1nn(C)c2c(=O)[nH]c(-c3cc(S(=O)(=O)N4CCN(C)CC4)ccc3OCC)nc12.O=C(O)CC(O)(CC(=O)O)C(=O)O` [SILDENAFIL CITRATE], the “Bacterial Biotransformation” value in series [1] is on record as “Compound NOT metabolized”; in series [2] it was “Compound metabolized”; in [3], “Compound NOT metabolized”; in series [4], “Compound NOT metabolized”; in [5], “Compound NOT metabolized”; in series [6], “Compound NOT metabolized”. In addition, the “Bacterial Biotransformation” value in series [7], in [8], in series [9], in series [10], in series [11] and in series [12] was “Compound NOT metabolized” each time. Further, the “Bacterial Biotransformation” value in [13] is given as “Compound NOT metabolized”; in [14], “Compound metabolized”; in series [15] it was “Compound NOT metabolized”; in [16], “Compound NOT metabolized”; in [17], “Compound metabolized”; in series [18], “Compound NOT metabolized”. In addition, the “Bacterial Biotransformation” value in series [19] and in series [20] was “Compound NOT metabolized” throughout.
